Data from patent US20070212773A1, “Electrical signal measuring device for cells in culture and electrical signal measuring method that uses same device” (priority 2006, published 2007).

Test system: intestinal Caco-2 cells
Assay: Impedance measurement of Caco-2 cells in culture after adding cupric chloride
Type: cell-based
From the text: The device used is specifically described as follows. That is, the support body is made of PDMS, and the size of the compartment in the support body (the combined size of the upper compartment and the lower compartment) is 15 mm in length, 6 mm in width, and 1.6 mm in height. This compartment is divided into an upper compartment and a lower compartment each with a height of approximately 0.8 mm using a polyester porous membrane which is provided with a diameter of 0.4 μm and a thickness of 14 μm (code 3450, made by CORNING INC.). Gold-plated brass nail-shaped objects with a length of 15 mm, an external diameter of 0.5 mm, and its circular head portion with a thickness of 0.4 mm and a diameter of 1.2 mm are used as the upper electrode and the lower electrode using a flat surface of the head portion as a measuring surface. Also, the upper electrode is fixed to the support body with its surface opposite to the surface facing the lower electrode in contact with the inside surface of the upper support body, while the lower electrode is fixed to the support body with its surface facing the upper electrode in contact with the semipermeable membrane. At this time, the distance between the surfaces of the upper electrode that faces the lower electrode and the lower electrode is 0.4 mm. Then, these electrodes are connected to an alternating-current power supply. Culturing conditions: As the culture medium, 10% fetal bovine serum, 1% MEM nonessential amino acid solution, 20 mM HEPES buffer solution, […] penicillin, 100 μg streptomycin, and 1 μg amphotericin added to DMEM (Dulbecco's Minimum Essential Medium) is used, and culturing is performed at an ambient temperature of 37 degrees C., with the carbon dioxide concentration maintained at 5%. Measurement condition: Measurement is performed by using a commercially available impedance analyzer, by applying an AC electrical field of 10 mV amplitude (1 Hz to 10 MHz) across the electrodes. Using the device used in Example 1, while culturing intestinal Caco-2 cells to which cupric chloride is added; impedance of the cells was measured. The culturing conditions of the cells and impedance measurement conditions are the same as in Example 1. The culture medium was replaced every two days, with the impedance measurement being performed before and after the culture medium replacement. Culturing was normally performed until the seventh day from the start of culturing. After impedance measurement, cupric chloride was added to a concentration of 30 μM to the culture medium, and the cell culturing was continued as it was from the moment directly after the cupric chloride was added (0 hours) to four hours after the addition. After the passage of four hours, the impedance was measured, and the culture medium containing the cupric chloride was washed away by a culture medium not containing the cupric chloride, accordingly washing was performed while the cells in culture were remained in the device. During this period, the impedance of the cells in culture was arbitrarily measured. In the legend shown in FIG. 3, “3 days” means the third day from the start of culturing, while “7 days (4 hours after addition)” means four hours after addition of cupric chloride to the culture medium on the seventh day from the start of culturing.

SMILES: [Cl][Cu][Cl] [cupric chloride]
- change in impedance amplitude (membranous structure) (30 μM for 4 h, then washed, 25 hours after the addition, breakdown of the membranous structure): reduction
- impedance phase θ around 10^6 Hz region (30 μM for 4 h, then washed, 25 hours after the addition, curve shifted to higher frequency side): −53 degrees
- impedance phase θ around 10^6 Hz region (30 μM for 4 h, then washed, 48 hours after the addition, curve shifted to lower frequency side): −58 degrees
- change in impedance amplitude (membranous structure) (30 μM for 4 h, then washed, 48 hours after the addition, renewal of the membranous structure): increase
- change in impedance amplitude (membranous structure) (30 μM in culture medium, added on seventh day of culturing, until four hours from the addition): hardly any changes
- change in impedance phase spectra curve (30 μM, added on seventh day of culturing, until four hours from the addition): without large changes
